Assay results: patent US9144569B2, “Methods of administering an aromatase inhibitor, prostaglandin and GnRH for regulating ovulation in cattle” (UNIVERSITY OF SASKATCHEWAN, priority 2010, dated 2015)
Marks after values point to notes of the source that are not given here.

Tests used:
[1] = system: Hereford-cross beef heifers; test: Example II: computer-assisted ultrasound image analysis of CL and dominant follicle; format: in vivo, cattle
Method: Ultrasound images from a subset of letrozole-treated (n=4-5 per group) and control (n=6) heifers were recorded throughout the duration of treatment for computer-assisted image analysis. Images were analyzed using a series of custom-developed computer algorithms optimized for ultrasonography ([…] Version 2.8© Saskatoon, Saskatchewan) on a Sun Sparc Station (Sun Microsystems, MT View, Calif.) computer. Echotexture was defined in terms of mean pixel value and pixel heterogeneity. Mean pixel values were quantified using a grey-scale ranging from 0 (black) to 255 (white). The pixel heterogeneity was the standard deviation of grey-scale values of all the pixels within the user-defined region of measurement. Spot analysis of the follicular antrum and corpus luteum, and line analysis of the peripheral antrum, follicular wall and stroma were done as previously described. For spot analyses, the follicular antrum and the CL wall were divided into four quadrants and the sampling area encompassed 75 to 80% of each quadrant. For line analyses, a straight line was drawn transversing the follicular wall from peripheral antrum to stroma and the pixel values along that line were measured in areas located within the 10 and 2 o'clock position of the follicles.
(§1) Statistical analyses were done using the Statistical Analysis System software package (SAS Learning Edition 9.1, 2006; SAS Institute Inc., Cary, N.C., USA). Time-series hormone data, plasma letrozole concentration, and follicular and luteal diameter profiles were analysed by repeated measures, using the PROC MIXED procedure. The main effects were treatment, time, and their interactions. […] Single point measurements (interwave and interovulatory intervals, interval from ovulation to onset of CL regression, mean and basal LH concentrations, LH pulse amplitude and frequency, and pharmacokinetic parameters for letrozole) were analysed by analysis of variance. […] If significant main effects or interactions (P≦0.05) were detected, Tukey's post-hoc test was used for multiple comparisons.

women = test: Letrozole at expected time of ovulation in women; format: in vivo, human; conditions: women treated at 18 mm follicle diameter
plasma LH = test: Example II: plasma LH and LH pulsatility during 3-day letrozole regimen; format: in vivo, cattle
Method: Four days after follicular ablation, heifers were given 500 μg of cloprostenol (PGF, Estrumate, Schering-Plough Animal Health, Pointe-Claire, QC, Canada) intramuscularly (im) to induce regression of the CL and to synchronize ovulation. The experiment was performed in two replicates (n=20-27 per replicate) and each heifer was used only once. In replicate 1, heifers were assigned randomly at the time of ovulation (Day 0) to the following groups and given a 3-day regimen of letrozole from Days 1 to 3 (n=5), Days 3 to 5 (n=5), Days 5 to 7 (n=5), or no treatment (control group, n=5). In replicate 2, heifers were similarly assigned to groups and given letrozole from Days 1 to 3, (n=5), Days 3 to 5 (n=4), or Days 5 to 7 (n=4), but untreated control heifers were arranged in three sub-groups to serve as contemporaneous controls for each letrozole-group during intensive blood sampling periods (i.e., control Days 1 to 3, n=4; control Days 3 to 5, n=4; and control Days 5 to 7, n=5). For practical purposes, the total dose of letrozole (250 μg/kg) was calculated on the basis of an average weight of 350 kg for all heifers and administered intravenously in daily divided doses over 3 days (85 μg/kg per day). For intravenous injection, letrozole was prepared in 95% ethanol to a final concentration of 5 mg/ml, resulting in an injection volume of 6 mL/day.
Blood samples were collected by jugular or coccygeal venipuncture into 10 ml heparinised, vacuum tubes (Vacutainer tubes; Becton Dickinson Vacutainer Systems, Franklin Lakes, N.J., USA). Blood samples were collected daily from pre-treatment ovulation to post-treatment ovulation. In replicate 1, additional samples were collected from letrozole-treated heifers every 12 hours from the beginning of treatment to first wave emergence. In replicate 2, heifers were sampled at 15 minute intervals for the first 8 hours after the second dose of letrozole (i.e., second day of treatment) using an indwelling jugular catheter, as described previously. Blood samples were centrifuged at 1500×g for 20 minutes, and plasma was separated and stored in plastic tubes at −20° C.
Plasma LH concentrations were determined in duplicate using a double-antibody radioimmunoassay (NIDDK-bLH4). The minimum and maximum values along the standard curve were 0.06 and 8 ng/mL, respectively. The intra- and inter-assay coefficients of variation were 7.9% and 2.5%, respectively, for low reference samples (mean, 0.85 ng/mL) and 8.6% and 9.5%, respectively, for high reference samples (mean, 2.5 ng/mL).
as §1
Due to individual variability in circulating hormone concentrations among heifers, and because our objective was to determine the effect of treatment within individuals, data on LH and FSH concentrations were transformed to a percentage of the mean concentration of the two first data points collected (Days 0 and 1) for each individual heifer before analysis of variance for repeated measures. For the same reasons, estradiol concentrations were transformed to a percentage of the mean concentration of two pre-treatment data points ([…] each individual heifer before statistical analysis. […]

heifers = test: Example III: letrozole 1 mg/kg intravenously or intramuscularly in heifers, ovarian ultrasonography; format: in vivo, cattle; conditions: for Interwave Interval / Interovulatory Interval: mean±SEM
Method: Ovarian cyclicity in heifers was synchronized using transvaginal ultrasound-guided follicular ablation followed by a double dose of PGF 4 days after ablation. The ovaries were examined daily by transrectal ultrasonography to detect ovulation. Three days after ovulation, heifers were assigned randomly to four treatment groups and given letrozole at a dose of 1 mg/kg intravenously (in benzyl alcohol, n=10) or intramuscularly (in benzyl alcohol plus canola oil 1:1 v/v, n=10), or given a placebo intravenously (benzyl alcohol, n=5) or intramuscularly (benzyl alcohol plus canola oil 1:1 v/v, n=5). Ovarian structures were monitored by ultrasonography and blood samples were collected by jugular venipuncture twice daily from pre-treatment to post-treatment ovulations. Comparisons among groups were made by one-way ANOVA for single-point measurements and by ANOVA for repeated measures for time-series data.
Transrectal ultrasonography: daily from PGF treatment to the first ovulation post-treatment.
Endpoints are: Follicular diameter profiles; CL diameter profile; Circulating progesterone concentration; Circulating FSH and LH profiles; Letrozole profile and bioavailability; Circulating estradiol concentration Follicular fluid estradiol concentration).

plasma estradiol = test: Example II: plasma estradiol during 3-day letrozole regimen; format: in vivo, cattle; conditions: 3-day regimen, regardless of stage of follicular development
Method: Plasma estradiol concentrations were determined in duplicate by enzyme-linked immunosorbent assay (Cayman Chemical Company, Ann Arbor, Mich., USA). In this competitive ELISA, plasma steroid competes with acetylcholinesterase labelled steroid for the binding site on the polyclonal rabbit anti-steroid antibody. The antiserum to estradiol was reported to cross-react with estradiol-3-glucoronide (14%), estrone (12%), and estriol (0.3%). For all other steroids cross-reactivities were reported as <0.1%. The minimum and maximum values along the standard curve were 6.6 and 4000 pg/well, respectively. The intra- and inter-assay coefficients of variation for reference samples assayed in duplicate were 11.7% and 12.7, respectively.
For the same reasons, estradiol concentrations were transformed to a percentage of the mean concentration of two pre-treatment data points (i.e. for each individual heifer before statistical analysis.

[2] = treatment period Day 1-3, 15 min samples over 8 hours
[3] = treatment period Day 3-5, 15 min samples over 8 hours
[4] = treatment period Day 5-7, 15 min samples over 8 hours

## N#Cc1ccc(C(c2ccc(C#N)cc2)n2cncn2)cc1 [Letrozole, letrozole]
[1]; 3-day regimen, any of the three periods
  mean pixel values and heterogeneity of the dominant follicle antrum (spot analysis): not affected significantly
[1]; treated Days 1 to 3, P<0.06
  mean pixel values of the dominant follicle wall (line analysis), pre- to post-treatment: increased
[1]; treated Days 3 to 5 (printed Days 3 and 5)
  mean pixel values or heterogeneity along the follicular wall (line analysis): no effect
[1]; treated Days 5 to 7 (printed Days 5 and 7)
  mean pixel values or heterogeneity along the follicular wall (line analysis): no effect
women
  ovulation earlier than controls: 24 h
Plasma LH; 3-day regimen
  plasma LH concentrations among groups, daily samples: No significant differences
Plasma LH; AM samples collected during treatment
  plasma LH, percent of the mean of Days 0 and 1: 93.6±14.85%
Plasma LH; [2]
  Basal LH: 0.38 ± 0.11 ng/mL
  LH pulse amplitude: 0.46 ± 0.15 ng/mL
  LH pulse frequency: 0.95 pulses/h
Plasma LH; treatment period Day 1-3, 15 min samples over 8 hours after second dose
  Mean LH: 0.52 ± 0.15 ng/mL
Plasma LH; [3]
  Basal LH: 0.08 ± 0.03 ng/mL
  LH pulse amplitude: 0.40 ± 0.18 ng/mL
  LH pulse frequency: 0.53 pulses/h
  Mean LH: 0.15 ± 0.5 ng/mL
Plasma LH; [4]
  Basal LH: 0.13 ± 0.02 ng/mL
  LH pulse amplitude: 0.88 ± 0.37 ng/mL
  LH pulse frequency: 0.41 pulses/h
  Mean LH: 0.21 ± 0.04 ng/mL
heifers; 1 mg/kg IM in benzyl alcohol plus canola oil
  Interwave Interval: 11.7 ± 0.34^b Days
heifers; 1 mg/kg IM in benzyl alcohol plus canola oil, listed as letrozole
  Interwave Interval: 11.7 days
heifers; 1 mg/kg IM, P<0.05
  day-to-day diameter profile of the corpus luteum vs IM controls: larger
heifers; 1 mg/kg IM
  Interovulatory Interval: 19.7 ± 0.83 days
heifers; 1 mg/kg IV in benzyl alcohol
  Interwave Interval: 10.6 ± 0.30^a,b Days
heifers; 1 mg/kg IV in benzyl alcohol, listed as letrozole
  Interwave Interval: 10.6 days
heifers; 1 mg/kg IV or IM vs placebo, Day 3 after ovulation
  day-to-day diameter profile of the dominant follicle among groups: not different
heifers; 1 mg/kg IV
  Interovulatory Interval: 18.9 ± 0.70 days
Plasma estradiol
  plasma estradiol concentrations compared to control heifers: not different
